Source: ChEMBL document CHEMBL6121046, “Discovery of Novel Hydrazide-Based HDAC3 Inhibitors as Epigenetic Immunomodulators for Cancer Immunotherapy” (J Med Chem, 2025)
The source made the active and inactive calls. The calls are words filed in the database; no cut-off is given here.

How the values were obtained:
[1] = MRT (0 to infinity) in Sprague-Dawley rat at 20 mg/kg, po measured upto 12 hrs by LC-MS/MS analysis; format: ADME, organism-based; details: in vivo
[2] = system: MC-38; assay: In vivo antitumor activity against mouse MC38 cells allografted in C57BL/6 mouse assessed as decrease in […] positive cells in tumor at 50 mg/kg, po treated 5 days after cell inoculation 19 th day by immunofluorescence analysis; format: functional, organism-based; details: time 15.0 day
[3] = system: Mus musculus; assay: (§1) Immunomodulatory effect in C57BL/6 mouse allografted mouse MC38 cells assessed as increase in tumor infiltrating lymphocytes by measuring increase in […] in mouse blood at 50 mg/kg, po treated 5 days after cell inoculation 19 th day by flow cytometry analysis (reference value: 0.35%); format: functional; details: time 15 day
[4] = system: Mus musculus; assay: (§2) Immunomodulatory effect in C57BL/6 mouse allografted mouse MC38 cells assessed as increase in tumor infiltrating lymphocytes by measuring increase in CD8+ T […] cells in tumor at 50 mg/kg, po treated 5 days after cell inoculation 19 th day by flow cytometry analysis (reference value: 2.32%); format: functional; details: time 15 day
[5] = system: Mus musculus; assay: as §2, with “[…] in mouse lymph nodes at 50” for “cells in tumor at 50”, “(reference value: 20.3%)” for “(reference value: 2.32%)”; format: functional; details: time 15 day
[6] = system: MC-38; assay: Induction of mitochondrial membrane damage in mouse MC38 cells assessed as decrease in JC-1 aggregation by measuring red fluorescence at 4 uM measured after 48 hrs (reference value: 96.70%); format: functional; set-up: scale not given: the % may be the effect or the level left
[7] = system: MC-38; assay: Induction of mitochondrial membrane damage in mouse MC38 cells assessed as increase in JC-1 monomers by measuring green fluorescence at 4 uM measured after 48 hrs (reference value: 3.13%); format: functional
[8] = system: MC-38; assay: In vivo antitumor activity against mouse MC38 cells allografted in C57BL/6 mouse assessed as apoptosis in tumor at 50 mg/kg, po treated 5 days after cell inoculation 19 th day relative to control; format: functional, organism-based; details: time 15.0 day
[9] = Clearance in Sprague-Dawley rat at 20 mg/kg, po measured upto 12 hrs by LC-MS/MS analysis; format: ADME, organism-based; details: in vivo
[10] = Toxicity in C57BL/6 mouse allografted with mouse MC38 cells assessed as creatinine (CRE) level in serum at 50 mg/kg, po treated 5 days after cell inoculation 19 th day; format: organism-based; details: in vivo, 360 h, time 15 day
[11] = system: Mus musculus; assay: as §2, with “[…] in mouse lymph nodes in presence of NP19 PD-L1 inhibitor at 50” for “cells in tumor at 50”, “(reference value: 20.3%)” for “(reference value: 2.32%)”; format: functional; details: time 15 day
[12] = MRT (0 to infinity) in Sprague-Dawley rat at 20 mg/kg, iv measured upto 12 hrs by LC-MS/MS analysis; format: ADME, organism-based; details: in vivo
[13] = system: Mus musculus; assay: as §2, with “[…] in mouse spleen in presence of NP19 PD-L1 inhibitor at 50” for “cells in tumor at 50”, “(reference value: 13.6%)” for “(reference value: 2.32%)”; format: functional; details: time 15 day
[14] = system: MC-38; assay: Induction of mitochondrial membrane damage in mouse MC38 cells assessed as increase in JC-1 monomers by measuring green fluorescence at 8 uM measured after 48 hrs (reference value: 3.13%); format: functional
[15] = Cmax in Sprague-Dawley rat at 20 mg/kg, iv measured upto 12 hrs by LC-MS/MS analysis; format: ADME, organism-based; details: in vivo
[16] = Toxicity in C57BL/6 mouse allografted with mouse MC38 cells assessed as pathological changes in liver at 50 mg/kg, po treated 5 days after cell inoculation 19 th day by hematoxylin and eosin analysis; format: organism-based; details: in vivo, 360 h, time 15 day
[17] = system: Mus musculus; assay: Induction of PD-L1 expression in tumor in C57BL/6 mouse allografted with mouse MC38 cells in presence of NP19 PD-L1 inhibitor at 50 mg/kg, po treated 5 days after cell inoculation 19 th day by immunofluorescence analysis; format: functional, organism-based; details: time 15.0 day
[18] = Toxicity in C57BL/6 mouse allografted with mouse MC38 cells assessed as urea nitrogen (BUN) level in serum at 50 mg/kg, po treated 5 days after cell inoculation 19 th day; format: organism-based; details: in vivo, 360 h, time 15 day
[19] = system: MC-38; assay: In vivo antitumor activity against mouse MC38 cells allografted in C57BL/6 mouse assessed as increase in Tunel-positive cells in tumor at 50 mg/kg, po treated 5 days after cell inoculation 19 th day by immunofluorescence analysis; format: functional, organism-based; details: time 15.0 day
[20] = system: MC-38; assay: In vivo antitumor activity against mouse MC38 cells allografted in C57BL/6 mouse assessed as tumor growth inhibition at 50 mg/kg, po treated 5 days after cell inoculation 19 th day relative to control; format: functional; details: MC-38, 360 h, time 15 day, read-out: TGI
[21] = system: Mus musculus; assay: as §1, with “blood in presence of NP19 PD-L1 inhibitor” for “blood”; format: functional; details: time 15 day
[22] = system: MC-38; assay: In vivo antitumor activity against MC38 cells allografted in C57BL/6 mouse assessed as tumor growth inhibition in presence of NP19 PD-L1 inhibitor at 50 mg/kg, po treated 5 days after cell inoculation 19 th day relative to control; format: functional; details: MC-38, 360 h, time 15 day, read-out: TGI
[23] = system: MC-38; assay: Induction of PD-L1 expression in mouse MC38 cells in presence of JQ-1 BRD4 inhibitor at 4 uM measured after 24 hrs incubation by Western blot analysis; format: functional, cell-based
[24] = Acute toxicity in C57 mouse assessed as body weight change; details: in vivo
[25] = system: Mus musculus; assay: as §2, with “[…] in mouse spleen at 50” for “cells in tumor at 50”, “(reference value: 13.6%)” for “(reference value: 2.32%)”; format: functional; details: time 15 day
[26] = Toxicity in C57BL/6 mouse allografted with mouse MC38 cells assessed as pathological changes in spleen at 50 mg/kg, po treated 5 days after cell inoculation 19 th day by hematoxylin and eosin analysis; format: organism-based; details: in vivo, 360 h, time 15 day
[27] = Toxicity in C57BL/6 mouse allografted with mouse MC38 cells assessed as alanine amino transferase (ALT) level in serum at 50 mg/kg, po treated 5 days after cell inoculation 19 th day; format: organism-based; details: in vivo, 360 h, time 15 day
[28] = system: MC-38; assay: Induction of ROS production in mouse MC38 cells assessed as increase in intracellular ROS level measured after 48 hrs by flow cytometry; format: functional, cell-based
[29] = system: MC-38; assay: Induction of mitochondrial membrane damage in mouse MC38 cells assessed as decrease in JC-1 aggregation by measuring red fluorescence at 8 uM measured after 48 hrs (reference value: 96.70%); format: functional; set-up: scale not given: the % may be the effect or the level left
[30] = AUC (0 to t) in Sprague-Dawley rat at 20 mg/kg, iv measured upto 12 hrs by LC-MS/MS analysis; format: ADME, organism-based; details: in vivo
[31] = Toxicity in C57BL/6 mouse allografted with mouse MC38 cells assessed as aspartate aminotransferase (AST) level in serum at 50 mg/kg, po treated 5 days after cell inoculation 19 th day; format: organism-based; details: in vivo, 360 h, time 15 day
[32] = system: Mus musculus; assay: Immunomodulatory effect in C57BL/6 mouse allografted mouse MC38 cells assessed as increase in tumor infiltrating lymphocytes by measuring increase in CD4+ T helper cells in tumor in presence of NP19 PD-L1 inhibitor at 50 mg/kg, po treated 5 days after cell inoculation 19 th day by flow cytometry analysis (reference value: 2.57%); format: functional; details: time 15 day
[33] = system: MC-38; assay: In vivo antitumor activity against mouse MC38 cells allografted in C57BL/6 mouse assessed as apoptosis in tumor in presence of NP19 PD-L1 inhibitor at 50 mg/kg, po treated 5 days after cell inoculation 19 th day relative to control; format: functional, organism-based; details: time 15.0 day

SMILES: CCCNNC(=O)c1ccc(CNC(=O)c2cnc(-c3ccc4occc4c3)[nH]2)cc1
- MRT inf [1]: 4.33 h
- Activity [2]: Active
- Activity [3]: 0.56%
- Activity [4]: 5.29%
- Activity [5]: 29.6%
- Activity [6]: 72.13%
- Activity [7]: 27.53%
- Activity [8]: Active
- CL/F [9]: 259 mL/min/kg
- Activity [10]: Non-toxic
- Activity [11]: 31.6%
- MRT inf [12]: 1.2 h
- Activity [13]: 17.4%
- Activity [14]: 28.37%
- Cmax [15]: 1210 ng/mL
- Activity [16]: Non-toxic
- Activity [17]: Active
- Activity [18]: Non-toxic
- Activity [19]: Active
- inhibition in vivo at 50 mg/kg [20]: 63%
- Activity [21]: 0.83%
- inhibition in vivo at 50 mg/kg [22]: 80%
- Activity [23]: Active
- LD50 [24]: > 200 mg/kg
- Activity [25]: 14.1%
- Activity [26]: Non-toxic
- Activity [27]: Non-toxic
- Activity [28]: Dose-dependent-effect
- Activity [29]: 71.37%
- AUC(0-t) at 12 h [30]: 1250 ng·h/mL
- Activity [31]: Non-toxic
- Activity [32]: 3.11%
- Activity [33]: Active
